≈ marks a conversion by molar mass, not a printed value.
Key:
Type in all cases: functional
[1] = system: Escherichia coli; assay: Antimicrobial activity against Escherichia coli TF-KP278 harboring beta-lactamase OXY-1 by Etest method
[2] = system: Escherichia coli; assay: Antimicrobial activity against Escherichia coli TF-KO279 harboring beta-lactamase OXY-1 by Etest method
[3] = system: Klebsiella pneumoniae; assay: Antimicrobial activity against Klebsiella pneumoniae 101A harboring beta-lactamase CMY-2 by Etest method
[4] = system: Klebsiella pneumoniae; assay: Antimicrobial activity against Klebsiella pneumoniae 278sp by Etest method
[5] = system: Escherichia coli; assay: Antimicrobial activity against Escherichia coli DH5alpha by Etest method; conditions: DH5[alpha]
[6] = system: Klebsiella pneumoniae; assay: Antimicrobial activity against Klebsiella pneumoniae 278 harboring beta-lactamase OXY-1 by Etest method
[7] = system: Klebsiella oxytoca; assay: Antimicrobial activity against Klebsiella oxytoca KO279 harboring beta-lactamase OXY-1 by Etest method
[8] = system: Klebsiella oxytoca; assay: Antimicrobial activity against Klebsiella oxytoca KO281 harboring beta-lactamase OXY-1 and CMY-2 by Etest method
[9] = system: Klebsiella oxytoca; assay: Antimicrobial activity against Klebsiella oxytoca KO280 harboring beta-lactamase OXY-1 by Etest method
[10] = system: Escherichia coli; assay: Antimicrobial activity against Escherichia coli TF-KO281 harboring beta-lactamase OXY-1 by Etest method

Compound	MIC [1] [µg/mL]	MIC [2] [µg/mL]	MIC [3] [µg/mL]	MIC [4] [µg/mL]	MIC [5] [µg/mL]	MIC [6] [µg/mL]	MIC [7] [µg/mL]	MIC [8] [µg/mL]	MIC [9] [µg/mL]	MIC [10] [µg/mL]
CC(C)(O/N=C(\C(=O)N[C@@H]1C(=O)N2C(C(=O)[O-])=C(C[n+]3ccccc3)CS[C@H]12)c1csc(N)n1)C(=O)O [CEFTAZIDIME]	0.75 (≈ 1.37 µM)	0.75 (≈ 1.37 µM)	64 (≈ 117 µM)	1 (≈ 1.83 µM)	0.25 (≈ 0.457 µM)	1.5 (≈ 2.74 µM)	4 (≈ 7.32 µM)	≥ 256	4 (≈ 7.32 µM)	1 (≈ 1.83 µM)
CC1(C)S[C@@H]2[C@H](NC(=O)[C@H](N)c3ccccc3)C(=O)N2[C@H]1C(=O)O [AMPICILLIN]	≥ 256	≥ 256	≥ 256	96 (≈ 275 µM)	4 (≈ 11.4 µM)	≥ 256	≥ 256	≥ 256	≥ 256	≥ 256
CO[C@@]1(NC(=O)Cc2cccs2)C(=O)N2C(C(=O)O)=C(COC(N)=O)CS[C@@H]21 [CEFOXITIN]	2 (≈ 4.68 µM)	2 (≈ 4.68 µM)	≥ 256	4 (≈ 9.36 µM)	2 (≈ 4.68 µM)	4 (≈ 9.36 µM)	3 (≈ 7.02 µM)	≥ 256	3 (≈ 7.02 µM)	2 (≈ 4.68 µM)
CO/N=C(\C(=O)N[C@@H]1C(=O)N2C(C(=O)O)=C(COC(C)=O)CS[C@H]12)c1csc(N)n1 [CEFOTAXIME]	0.25 (≈ 0.549 µM)	0.25 (≈ 0.549 µM)	6 (≈ 13.2 µM)	0.047 (≈ 0.103 µM)	0.023 (≈ 0.0505 µM)	1 (≈ 2.2 µM)	1.5 (≈ 3.29 µM)	16 (≈ 35.1 µM)	1.5 (≈ 3.29 µM)	0.38 (≈ 0.834 µM)
CO/N=C(\C(=O)N[C@@H]1C(=O)N2C(C(=O)[O-])=C(C[N+]3(C)CCCC3)CS[C@H]12)c1csc(N)n1 [CEFEPIME]	–	–	0.5 (≈ 1.04 µM)	0.19 (≈ 0.395 µM)	0.032 (≈ 0.0666 µM)	1 (≈ 2.08 µM)	1.5 (≈ 3.12 µM)	1.5 (≈ 3.12 µM)	1.5 (≈ 3.12 µM)	0.38 (≈ 0.791 µM)
CCn1cc(C(=O)O)c(=O)c2cc(F)c(N3CCNCC3)cc21 [NORFLOXACIN]	0.38 (≈ 1.19 µM)	0.5 (≈ 1.57 µM)	0.125 (≈ 0.391 µM)	0.125 (≈ 0.391 µM)	0.094 (≈ 0.294 µM)	1 (≈ 3.13 µM)	1.5 (≈ 4.7 µM)	1.5 (≈ 4.7 µM)	1 (≈ 3.13 µM)	0.5 (≈ 1.57 µM)
O=C(O)c1cn(C2CC2)c2cc(N3CCNCC3)c(F)cc2c1=O [CIPROFLOXACIN]	–	–	0.047 (≈ 0.142 µM)	0.047 (≈ 0.142 µM)	0.032 (≈ 0.0966 µM)	0.38 (≈ 1.15 µM)	0.38 (≈ 1.15 µM)	0.38 (≈ 1.15 µM)	0.25 (≈ 0.754 µM)	–
C[C@@H](O)[C@H]1C(=O)N2C(C(=O)O)=C(SCCNC=N)C[C@H]12 [IMIPENEM ANHYDROUS]	0.19 (≈ 0.635 µM)	0.19 (≈ 0.635 µM)	0.38 (≈ 1.27 µM)	0.25 (≈ 0.835 µM)	0.19 (≈ 0.635 µM)	0.25 (≈ 0.835 µM)	0.25 (≈ 0.835 µM)	0.25 (≈ 0.835 µM)	0.25 (≈ 0.835 µM)	0.19 (≈ 0.635 µM)
C[C@H]1[C@H](NC(=O)/C(=N\OC(C)(C)C(=O)O)c2csc(N)n2)C(=O)N1S(=O)(=O)O [AZTREONAM]	64 (≈ 147 µM)	64 (≈ 147 µM)	6 (≈ 13.8 µM)	0.064 (≈ 0.147 µM)	0.023 (≈ 0.0528 µM)	32 (≈ 73.5 µM)	≥ 256	≥ 256	≥ 256	128 (≈ 294 µM)
